{
  "source": "paper PMC10926482",
  "about": "“BK Channels Are Activated by Functional Coupling With L-Type Ca^2+ Channels in Cricket Myocytes” (Frontiers in Insect Science, 2021)",
  "tested_on": "T1, BK channel (large-conductance Ca2+-activated K+ channel) of cricket oviduct myocytes",
  "T1 construct": "gene slo; native channel in isolated adult female lateral oviduct myocytes; single-channel patch clamp; not molecularly identified; homotetramer expected, auxiliary subunits unknown",
  "experiment": "cell-attached single-channel patch clamp, current amplitude, pipette backfill",
  "type": "cell-based, Gryllus bimaculatus",
  "details": "extracellular side; open-channel block; Hill coefficient 1.0; pipette solution 140 mM KCl, 1.6 mM CaCl2, pH 7.4; 22–27°C; counterion not given",
  "text": "cell-attached single-channel patch clamp, current amplitude, pipette backfill on BK channel (large-conductance Ca2+-activated K+ channel) of cricket oviduct myocytes | inhibitory effect on the current amplitude of a single BK channel with an IC50 value",
  "data": [
    {"smiles": "CC[N+](CC)(CC)CC", "note": "[TEA, tetraethylammonium]", "values": [
      {"measurement": "IC50", "value": "319 ± 68.8", "unit": "µM"}
    ]}
  ]
}
